Assay results published in US10654815B2, “Urea compound and preparation method and application thereof” (SHENZHEN CHIPSCREEN BIOSCIENCES CO., LTD., priority 2016, dated 2020).

Columns and labels:
[1] = test system: T cell leukemia cell line (Jurkat cell); experiment: Cytotoxic activity, MTS assay in T cell line; type: cell-based; conditions: Homo sapiens, Jurkat cells, compound 2 μM, 72 h, relative to solvent control (DMSO)
Description: In order to rule out the biological function changes of T cell caused by cytotoxic effects of the compounds themselves, MTS assay was used as a routine cytotoxicity detection method. The basic principle was that the dehydrogenase in the living cell mitochondria was capable of metabolizing and reducing the new type yellow […] compound MTS to formazan. The amount of formazan product measured at 490 nm absorbance (OD) was directly proportional to the number of viable cells in the culture, and thus whether the test compound itself had the ability of inhibiting cell growth or killing cells can be judged basing on the OD value.
In this experiment, the T cell leukemia cell line (Jurkat cell) was evaluated for its cell growth activity according to the MTS assay.
The MTS was carried out in a 96-well plate according to a routine experimental procedure.
Cell lines were inoculated into a 96-well plate at an appropriate concentration (approximately 20,000 cells/well), test compounds (final concentration 2 μM) were added, and at the same time solvent control (DMSO) and negative control wells were set, and the well was set in triplicate. The cells were further cultured for 72 h followed by detection.
After the culture, 20 μL of the a pre-prepared mixture of MTS and PMS (mixed in a ratio of 20:1) was added directly to the culture well, and incubated in a 37° C. incubator for 2 h, and then detection was conducted using a microplate reader (490 nm).
The background value of the negative control was subtracted, and the relative cell activity (%) of the test compound on cell growth=(OD value of the test well/OD value of the solvent control well)×100%.

[2] = molecular target: T1, PD-1/PD-L1 binding (UniProt Q9NZQ7); experiment: In-vitro PD-1/PD-L1 binding inhibition (HTRF); set-up: species or system human; conditions: His-PD-1 100 nM, PD-L1-Fc 2 nM final, read-out: IC50 on inhibiting PD-1/PD-L1 binding in-vitro
T1 construct: fused on or other part: human IgG Fc (hFc tag) fused to PD-L1
Description: Main Principle of the Experiment (HTRF)
Homogeneous Time-Resolved Fluorescence (HTRF): The PD-1 protein carried an His tag and the Fc fusion protein of its ligand PD-L1 carried an hFc tag. An anti-hFc antibody labeled with a chelating marker of Eu element and an anti-His antibody labeled with XL66 were respectively combined with two corresponding tags. After laser excitation (320 nm), energy was transferred from the donor Eu to the acceptor XL665, so that the XL665 emitted light (665 nm). […] The basic detection principle was as follows (see FIG. 3):
The His-tagged human recombinant PD-1 protein (Cat#: 80448-R08H-100) and human recombinant PD-L1-Fc fusion protein (Cat#: 90251-CO2H-100) were purchased from Sino Biological Inc., and the anti-hFc-Eu3^+ and anti-His-XL665 antibody were purchased from Cisbio. Other related reagents such as dilution buffer, detection buffer were all purchased from Cisbio. The fluorescence detection instrument Tecan (Spark 10M) was purchased from Tecan, Switzerland.
The experimental process was carried out in accordance with the procedure required by the instruction manual for the test reagent […]. The process was as follows:
(1) Preparation of the experiment: The test compound was diluted to a different concentration gradient with a dilution buffer (the maximum final concentration was 10 μM in 20 μL final reaction system), the His-PD-1 protein was diluted to 800 nM (the final concentration was 100 nM in 20 μL final reaction system), and the PD-L1-Fc fusion protein was diluted to 16 nM (the final concentration was 2 nM). The anti-His-XL665 antibody and the anti-hFc-Eu^3+ antibody were diluted 20-fold and 100-fold, respectively, with the test diluent according to the reagent requirements.
(2) 5 μL of the test compound, 2.5 μL of PD-L1 protein and 2.5 μL of PD-1 protein solution were evenly mixed, and then reacted at room temperature for 15 min. Subsequently, 5 μL of anti-His-XL665 antibody and 5 μL of anti-hFc-Eu^3+ antibody were added to the system, and the incubation was continued for 3 hours followed by detection.
(3) At the same time of detection of the reaction, control groups were set, including a 0-inhibited positive control to which no test compound was added, and a negative control to which no PD-1 protein was added. All tests were run in duplicate.
(4) The fluorescence signal of each well was detected by a fluorescence detector Tecan (Spark 10M) with an excitation wavelength of 320 nm and detected emission wavelengths of 620 nm and 665 nm, respectively. The intensity of PD-1/PD-L1 binding to each other referred to the fluorescence signal ratio Em665/Em620.
(5) Formula for calculating the binding inhibition rate of test compounds: inhibition rate (%)=[1−(ratio of fluorescence signals of detection holes−negative control)/(ratio of fluorescence signals of 0-inhibited positive control−negative control)×100%. After calculating the binding inhibition rate of the test compounds with different concentration gradients, the 50% inhibitory concentration (IC50) was further calculated.

[3] = test system: PD-1/PD-L1 interaction in human peripheral mononuclear cells (PBMC); experiment: PD-1 signal inhibition at cellular level: IL-2 secretion of SEB-stimulated PBMC (ELISA); type: cell-based; conditions: SEB 200 ng/mL-stimulated volunteer PBMC, compound 2 μM, 96 h; compared to anti-human PD-1 antibody (5 μg/mL)

Row | SMILES | IC50 [2] [nM] | activity at 2 µM [1] [%] | Activity of promoting IL-2 (%) [3] [%]
1 | Cc1c(COc2ccc(CNCCNC(=O)NCCN3CCOCC3)c(OCc3cccc(C#N)c3)c2)cccc1-c1ccccc1 [Compound I-1, 1-((2-(2-(3-cyanophenyl)methoxy-4-(2-methyl-(1,1′-diphenyl)-3-yl-methoxy))benzylamino)-2-ethyl)-3-(2-(N-morpholine)ethyl)urea] | 1710 | 102 | 
2 | Cc1c(COc2ccc(CNCCNC(=O)NCCO)c(OCc3cccc(C#N)c3)c2)cccc1-c1ccccc1 [Compound I-2, 1-((2-(2-(3-cyanophenyl)methoxy-4-(2-methyl-(1,1′-diphenyl)-3-yl-methoxy))benzylamino)-2-ethyl)-3-(2-hydroxyethyl)urea] | 581 | 100 | 
3 | Cc1cc(CNCCNC(=O)NC(CO)(CO)CO)c(OCc2cncc(C#N)c2)cc1OCc1cccc(-c2ccc3c(c2)OCCO3)c1C#N [Compound I-5] | 36.4 | 94.6 | 53
4 | C=C(NC(=O)NCCNCc1cc(C)c(OCc2cccc(-c3ccc4c(c3)OCCO4)c2C#N)cc1OCc1cncc(C#N)c1)C(=O)O [Compound I-6] | 70.2 | 92.1 | 56.3
5 | Cc1cc(CNCCOCCNC(=O)NCCO)c(OCc2cncc(C#N)c2)cc1OCc1cccc(-c2ccc3c(c2)OCCO3)c1C#N [Compound I-7] | 43.7 | 94.5 | 58.1
6 | Cc1cc(CNCCNC(=O)NCCN2CCOCC2)c(OCc2cncc(C#N)c2)cc1OCc1cccc(-c2ccc3c(c2)OCCO3)c1C#N [Compound I-8] | 61 | 95.1 | 
7 | Cc1cc(CNCCOCCNC(=O)NCCS(C)(=O)=O)c(OCc2cncc(C#N)c2)cc1OCc1cccc(-c2ccc3c(c2)OCCO3)c1C#N [Compound I-9] | 28.1 | 99.6 | 
8 | Cc1cc(CNCCOCCNC(=O)NCCN(C)C)c(OCc2cncc(C#N)c2)cc1OCc1cccc(-c2ccc3c(c2)OCCO3)c1C#N [Compound I-10] | 73.3 | 97.1 | 
9 | Cc1cc(CNCCNC(=O)NCCN(C)C)c(OCc2cncc(C#N)c2)cc1OCc1cccc(-c2ccc3c(c2)OCCO3)c1C#N [Compound I-11] | 76.1 | 95.6 | 51.7

More lines, in order of falling IC50 [2], values ahead:

Row | IC50 [2] [nM] | SMILES | activity at 2 µM [1] [%] | Activity of promoting IL-2 (%) [3] [%]
10 | 3120 | Cc1c(COc2ccc(CNCCNC(=O)N[C@@H](COC(C)(C)C)C(=O)OC(C)(C)C)c(OCc3cccc(C#N)c3)c2)cccc1-c1ccccc1 [Compound I-3, 1-((2-(2-(3-cyanophenyl)methoxy-4-(2-methyl-(1,1′-diphenyl)-3-yl-methoxy))benzylamino)-2-ethyl)-3-(2-tert-butyl-O-tert-butyl-L-serinate-2-yl)urea] | 99.7 | 
11 | 197 | C=CC(=O)NCCNC(=O)NCCNCc1cc(C)c(OCc2cccc(-c3ccc4c(c3)OCCO4)c2C#N)cc1OCc1cncc(C#N)c1 [Compound I-14] | 102 | 
12 | 49.1 | Cc1cc(CNCCNC(=O)NCCS(C)(=O)=O)c(OCc2cncc(C#N)c2)cc1OCc1cccc(-c2ccc3c(c2)OCCO3)c1C#N [Compound I-12] | 91.6 | 
13 | 37.5 | Cc1cc(CNCCNC(=O)NCCO)c(OCc2cncc(C#N)c2)cc1OCc1cccc(-c2ccc3c(c2)OCCO3)c1C#N [Compound I-4] | 93.2 | 
14 | 15.8 | Cc1cc(CNCCNC(=O)N[C@@H](CO)C(=O)O)c(OCc2cncc(C#N)c2)cc1OCc1cccc(-c2ccc3c(c2)OCCO3)c1C#N [Compound I-13] | 91.1 | 
